From patent US20200369626A1 (Washington University, priority 2019, published 2020)
“And” between values parts separate entries of the source, which are not always exact repeats. Identical values can stand only once. Like-named read-outs stand apart in the source and are kept apart here.

Columns and labels:
S1PR2 = target: T1, S1PR2 (Homo sapiens, UniProt O95136); experiment: competitive [^32P]S1P binding assay on cell membranes, S1PR2
T1 construct: purchased

[1] = tested on: Experimental autoimmune encephalomyelitis (EAE); experiment: EAE clinical score in immunized mice, osmotic pump treatment; type: in vivo, female SJL/J mice; conditions: from day 9 postimmunization
S1PR1 = target: T2, S1PR1 (Homo sapiens, UniProt P21453); experiment: competitive [^32P]S1P binding assay on cell membranes, S1PR1
T2 construct: purchased
Procedure: (§1) The test compounds were dissolved in DMSO and diluted into test samples with increasing concentrations with assay buffer. Commercial cell membranes expressing recombinant human S1PR were diluted with assay buffer to make a 20-40 μg/mL of solution. […] The plate was incubated for 60 min at room temperature with shaking and terminated by collecting the membranes onto 96-well glass fiber (GF/B) filtration plates (Millipore, Billerica, Mass.). Each filter was washed with 200 μL of assay buffer for a total of five washes. The filter bound radionuclide was measured by a Beckman LS 3801 scintillation counter using Cherenkov counting. The IC50 values were fitted from GraphPad Prism 6 using one site Nonlinear Regression.

S1PR3 = target: T3, S1PR3 (Homo sapiens, UniProt Q99500); experiment: competitive [^32P]S1P binding assay on cell membranes, S1PR3
T3 construct: purchased
Procedure: as §1

S1PR4 = target: T4, S1PR4 (Homo sapiens, UniProt O95977); experiment: competitive [^32P]S1P binding assay on cell membranes, S1PR4
T4 construct: purchased
T4 sequence (O95977 1-384): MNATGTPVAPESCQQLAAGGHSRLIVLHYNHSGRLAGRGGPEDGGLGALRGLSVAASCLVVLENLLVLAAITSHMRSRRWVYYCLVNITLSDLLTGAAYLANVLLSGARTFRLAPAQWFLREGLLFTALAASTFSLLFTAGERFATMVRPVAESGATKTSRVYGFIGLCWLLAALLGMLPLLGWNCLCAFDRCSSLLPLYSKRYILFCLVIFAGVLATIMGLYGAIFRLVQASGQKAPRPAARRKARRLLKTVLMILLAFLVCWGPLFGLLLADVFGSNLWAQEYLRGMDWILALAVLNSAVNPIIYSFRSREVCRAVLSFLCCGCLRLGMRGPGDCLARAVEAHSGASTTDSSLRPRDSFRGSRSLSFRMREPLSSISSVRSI
Procedure: as §1

S1PR5 = target: T5, S1PR5 (Homo sapiens, UniProt Q9H228); experiment: competitive [^32P]S1P binding assay on cell membranes, S1PR5
T5 construct: purchased

[2] = biodistribution study of [^11C]2c in EAE and control mice; type: in vivo, female SJL mice; conditions: for tissue uptake: female, SJL, mouse, brain, other: injection
Procedure: A biodistribution study was conducted in female SJL EAE mice and control mice (at 9 weeks, n=4 for each group) to determine the tissue accumulation of the radiotracer post-injection of the dose.

[3] = target: Human recombinant sphingosine-1-phosphate receptor 2 (Homo sapiens, UniProt O95136); experiment: biochemical; type: binding
Procedure: Then, a 50 μL aliquot of increasing concentrations of [^125I]34 (0.2, 0.5, 1.0, 2.0, 4.0, 6.0, 8.0, 10.0, 16.0, and 20.0 nM) was added to each well; each concentration of [^125I]34 was calculated from the radioactivity and specific activity. […] The mixture was incubated at room temperature for 1 h on a shaker and then transferred onto 96-well glass fiber filtration plates. The unbound activity was filtered and rapidly washed away using 200 μL/well of ice-cold assay buffer for 5 times. After drying under the vacuum, the filter bound radionuclide was measured by a Beckman 8000 automated gamma counter. Data analysis was accomplished using GraphPad Prism (GraphPadSoftware, Inc., San Diego, Calif.). The specific binding was calculated by subtracting the non-specific binding from the total binding. The binding assay data were curve-fit to a one-site binding equation to generate the dissociation constant (Kd) of the [^125I]34.

[4] = ex vivo biodistribution study of [^125I]34 in Wistar rats
Procedure: A pilot biodistribution study was carried out in a small number of rats at early time points post-injection in order to minimize the amount of mixed (radioactive and biological) waste generated by in vivo work. […] Control and streptozotocin-treated Wistar rats were used 10 days after treatment for the preliminary pilot acute ex vivo biodistribution study described below.
As described above, adult male Wistar rats from Charles River were used for a pilot study to evaluate the distribution of [^125I]34 in normal rats at 5 and 30 min post injection and in acute streptozotocin-induced diabetic rats 30 min post-injection (n=4 for each group). The acute streptozotocin-induced diabetic rats were treated 10 days before the study as described above. […] The concentrated solution of [^125I]34 was diluted to ˜0.037 MBq/100 μL which was formulated for injection in 10% ethanol in 5% polyoxyethylated 12-hydroxystearic acid (Kolliphor® HS 15, Millipore Sigma, Billerica, Mass.) and normal saline solution, in order to ensure that the radioactivity was solubilized. Rats were injected via the lateral tail vein under 2-3% isoflurane/oxygen anesthesia, then allowed to recover until euthanized under isoflurane/oxygen anesthesia at the appropriate time point post-injection. Tissues including blood, heart, lung, liver, kidney, muscle, fat, pancreas, spleen, kidney, liver, thyroid, thymus, brain, and small intestines were collected, weighed, and counted in a Beckman Gamma 8000 counter, and counts were corrected for background and decay corrected. Tracer uptake in tissues and organs was calculated as percent injected dose per gram of tissue (% ID/g).

[5] = target: T6, sphingosine-1-phosphate receptor 2 in kidney sections (Rattus norvegicus, UniProt P47752); experiment: in vitro autoradiography of [^125I]34 on rat kidney sections; type: binding, Sprague Dawley rats
T6 construct: from tissue; host or cells: kidney of male Sprague Dawley rats (control and STZ-induced diabetic)
Procedure: To check that changes of S1PR2 expression can be detected using [^125I]34 in the STZ induced diabetes rats, in vitro autoradiography studies of [^125]34 were performed.
Male Sprague Dawley (SD) rats (8 weeks old,) received streptozotocin (STZ) via tail vein injections at a dose of 55 mg/kg in 50 mM sodium citrate buffer 12 weeks prior to euthanasia and tissue harvesting. Body weight and blood glucose levels were measured weekly in control and treated animals, where elevated blood glucose was indicative of chronic diabetes (see FIG. 5a). After 12 weeks, the rats were euthanized and one kidney was removed, snap-frozen, and sectioned (14 microns) with a Leica cryostat.
The autoradiography experiment was performed by incubating frozen cross sections of rat kidney tissue and 1.85 KBq/slide of [^125I]34 in 500 μL of binding buffer (50 mM HEPES-Na pH 7.5, 5 mM MgCl2, and 1 mM CaCl2, 0.5% fatty acid-free bovine serum albumin) to check the uptake of the radioactivity. Blocking studies of radiotracer were performed by incubating the above solution with 10 μM of JTE-013, a S1PR2 specific inhibitor. After incubation for 60 minutes at room temperature, the kidney sections were washed 2 minutes each using the following buffers sequentially: 1×TBST, 15% ethanol in 1×TBST, 30% ethanol in 1×TBST, 1×TBST (1×TBST buffer: 20 mM of Tris, 150 mM of NaCl, 0.1% of Tween 20). Then, the section slides were placed into a cassette and exposed to a phosphor sensor sheet for 24 hours. Autoradiography signal was visualized by phosphor-imaging of FLA7000. Autoradiography signal on the renal tissues (cortex and medulla, not including the renal papilla) was measured and quantified with Multi Gouge program. The data was background-corrected and expressed as photo-stimulated luminescence signals per square millimeter (PSL/mm^2) as shown in FIG. 5B. For statistical comparison, the student t-test (unpaired) was applied using MS Excel and p<0.05 was considered statistically significant (see FIG. 5C.)

[6] = [^32P]S1P competition, read-out: IC50 value, S1PR2 binding
[7] = [^32P]S1P competition, Table 2, read-out: IC50 S1PR2

T1 sequence (O95136 whole entry): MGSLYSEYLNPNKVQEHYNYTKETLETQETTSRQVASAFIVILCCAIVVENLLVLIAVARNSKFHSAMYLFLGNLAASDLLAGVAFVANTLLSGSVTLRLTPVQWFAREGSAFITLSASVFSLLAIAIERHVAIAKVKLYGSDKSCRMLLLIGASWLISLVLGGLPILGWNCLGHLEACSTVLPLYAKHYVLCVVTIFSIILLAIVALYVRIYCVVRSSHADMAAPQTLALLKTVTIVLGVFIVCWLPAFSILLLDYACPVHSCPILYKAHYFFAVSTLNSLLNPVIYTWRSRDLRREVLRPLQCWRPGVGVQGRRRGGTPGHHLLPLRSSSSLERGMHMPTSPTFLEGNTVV
T2 sequence (P21453 whole entry): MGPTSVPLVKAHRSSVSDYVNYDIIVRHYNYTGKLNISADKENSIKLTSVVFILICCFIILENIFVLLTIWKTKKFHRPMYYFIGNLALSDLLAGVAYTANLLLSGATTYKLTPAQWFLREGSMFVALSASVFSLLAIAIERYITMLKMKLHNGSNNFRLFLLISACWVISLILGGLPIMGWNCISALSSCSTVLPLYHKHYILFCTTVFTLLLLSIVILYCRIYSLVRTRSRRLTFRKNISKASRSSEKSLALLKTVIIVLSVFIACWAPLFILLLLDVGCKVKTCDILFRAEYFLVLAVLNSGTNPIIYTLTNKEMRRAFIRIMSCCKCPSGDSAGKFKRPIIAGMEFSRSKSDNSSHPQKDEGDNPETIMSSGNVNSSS
T3 sequence (Q99500 whole entry): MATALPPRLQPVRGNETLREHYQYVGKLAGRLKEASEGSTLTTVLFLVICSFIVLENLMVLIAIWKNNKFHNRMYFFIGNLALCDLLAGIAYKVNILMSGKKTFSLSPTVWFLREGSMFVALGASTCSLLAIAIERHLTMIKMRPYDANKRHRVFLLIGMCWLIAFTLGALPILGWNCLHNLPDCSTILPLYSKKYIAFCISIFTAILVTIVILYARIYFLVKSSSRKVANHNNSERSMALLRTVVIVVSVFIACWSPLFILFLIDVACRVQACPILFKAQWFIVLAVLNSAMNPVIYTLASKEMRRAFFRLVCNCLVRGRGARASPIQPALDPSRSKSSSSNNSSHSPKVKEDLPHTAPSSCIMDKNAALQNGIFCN
T5 sequence (Q9H228 whole entry): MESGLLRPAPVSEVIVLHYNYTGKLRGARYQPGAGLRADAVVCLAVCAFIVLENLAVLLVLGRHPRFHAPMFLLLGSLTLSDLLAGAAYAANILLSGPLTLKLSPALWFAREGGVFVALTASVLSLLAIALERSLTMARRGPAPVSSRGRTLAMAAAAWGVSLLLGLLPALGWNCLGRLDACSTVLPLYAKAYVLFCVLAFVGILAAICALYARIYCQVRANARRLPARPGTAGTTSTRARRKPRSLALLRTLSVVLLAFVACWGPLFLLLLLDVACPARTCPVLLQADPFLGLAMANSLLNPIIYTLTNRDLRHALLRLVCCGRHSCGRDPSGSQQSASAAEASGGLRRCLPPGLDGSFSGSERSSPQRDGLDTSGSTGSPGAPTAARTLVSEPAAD
T6 sequence (P47752 whole entry): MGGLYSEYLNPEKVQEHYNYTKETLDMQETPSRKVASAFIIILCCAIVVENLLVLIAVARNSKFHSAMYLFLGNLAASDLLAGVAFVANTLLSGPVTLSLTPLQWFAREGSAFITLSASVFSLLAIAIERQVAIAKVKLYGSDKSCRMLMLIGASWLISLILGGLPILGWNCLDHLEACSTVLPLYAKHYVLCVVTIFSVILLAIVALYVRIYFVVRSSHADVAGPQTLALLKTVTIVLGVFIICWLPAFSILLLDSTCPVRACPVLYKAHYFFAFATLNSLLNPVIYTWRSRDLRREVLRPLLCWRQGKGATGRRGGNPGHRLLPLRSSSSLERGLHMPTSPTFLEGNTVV
Human recombinant sphingosine-1-phosphate receptor 2, sequence (O95136 whole entry): as the sequence (O95136 whole entry) above

COc1ccc(NC(=O)Cn2c(=O)c3ccccc3n(CC(=O)Nc3cc(Cl)c(OC)cc3OC)c2=O)cc1 [Compound 2c]
IC50 (S1PR2; [6]): 5.7 ± 0.5 nM | EAE disease course (clinical score) ([1]; 1 mg/kg, p<0.0002): significant improvement of EAE disease course | EAE disease course (clinical score) ([1]; 5 mg/kg, p<0.0001): significant improvement of EAE disease course

CCC(CC)CC1(O)CCN(C(=O)Nc2cc(Oc3ccc(F)cc3)cc(Oc3ccc4c(c3)CCN(C)C4=O)c2)CC1 [Compound 28b, 4-(2-Ethylbutyl)-N-(3-(4-fluorophenoxy)-5-((2-methyl-1-oxo-1,2,3,4-tetrahydroisoquinolin-6-yl)oxy)phenyl)-4-hydroxypiperidine-1-carboxamide]
IC50 (S1PR1): > 1000 nM | IC50 (S1PR3): > 1000 nM | IC50 (S1PR4): > 1000 nM | IC50 (S1PR5): > 1000 nM | melting point: 80 to 82 °C

CCC(CC)CC1(O)CCN(C(=O)Nc2cc(Oc3ccc(F)cc3)cc(Oc3ccc4c(c3)CCNC4=O)c2)CC1 [Compound 28c, 4-(2-Ethylbutyl)-N-(3-(4-fluorophenoxy)-5-((1-oxo-1,2,3,4-tetrahydroisoquinolin-6-yl)oxy)phenyl)-4-hydroxypiperidine-1-carboxamide]
IC50 (S1PR1): > 1000 nM | IC50 (S1PR3): > 1000 nM | IC50 (S1PR4): > 1000 nM | IC50 (S1PR5): > 1000 nM | melting point: 81 to 83 °C

CCC(CC)CC1(O)CCN(C(=O)Nc2cc(Oc3ccc(F)cc3)cc(Oc3ccc(C(=O)NCCF)cc3)c2)CC1 [Compound 28d, 4-(2-Ethylbutyl)-N-(3-(4-((2-fluoroethyl)carbamoyl)phenoxy)-5-(4-fluorophenoxy)phenyl)-4-hydroxypiperidine-1-carboxamide]
IC50 (S1PR2; [7]): 66.7 ± 7.8 nM | IC50 (S1PR1): > 1000 nM | IC50 (S1PR3): > 1000 nM | IC50 (S1PR4): > 1000 nM | IC50 (S1PR5): > 1000 nM | melting point: 79 to 82 °C

CCC(CC)CC1(O)CCN(C(=O)Nc2cc(Oc3ccc(F)cc3)cc(Sc3ccc(S(C)(=O)=O)cc3)c2)CC1 [Compound 28e, 4-(2-Ethylbutyl)-N-(3-(4-fluorophenoxy)-5-((4-(methylsulfonyl)phenyl)thio)phenyl)-4-hydroxypiperidine-1-carboxamide]
IC50 (S1PR2; [6]): 14.6 nM | IC50 (S1PR1): > 1000 nM | IC50 (S1PR3): > 1000 nM | IC50 (S1PR4): > 1000 nM | IC50 (S1PR5): > 1000 nM | melting point: 78 to 80 °C

CC(C)CC1(O)CCN(C(=O)Nc2cc(Oc3ccc(F)cc3)cc(Sc3ccc(S(C)(=O)=O)cc3)c2)CC1 [Compound 28g, N-(3-(4-Fluorophenoxy)-5-((4-(methylsulfonyl)phenyl)-thio)phenyl)-4-hydroxy-4-isobutylpiperidine-1-carboxamide]
IC50 (S1PR2; [7]): 38.5 ± 6.3 nM | IC50 (S1PR1): > 1000 nM | IC50 (S1PR3): > 1000 nM | IC50 (S1PR4): > 1000 nM | IC50 (S1PR5): > 1000 nM | melting point: 79 to 81 °C

Cc1nn(C)c2nc(NNC(=O)Nc3cc(Cl)nc(Cl)c3)cc(C(C)C)c12 [JTE-013, reference compound]
IC50 (S1PR1; [^32P]S1P competition, Table 2): > 1000 nM | IC50 (S1PR3; [^32P]S1P competition, Table 2): > 1000 nM | IC50 (S1PR4; [^32P]S1P competition, Table 2): > 1000 nM | IC50 (S1PR5; [^32P]S1P competition, Table 2): > 1000 nM

COc1cc(OC)c(NC(=O)Cn2c(=O)n(CC(=O)Nc3ccccc3OC)c(=O)c3ccccc32)cc1Cl [TZ59-134, N-(5-Chloro-2,4-dimethoxyphenyl)-2-(3-(2-((2-methoxyphenyl)amino)-2-oxoethyl)-2,4-dioxo-3,4-dihydroquinazolin-1(2H)-yl)acetamide]
IC50 (S1PR2; Table 5, read-out: IC50 S1PR2): 6.3 ± 0.9 nM | IC50 (S1PR1; Table 5): > 1000 nM | IC50 (S1PR3; Table 5): > 1000 nM | IC50 (S1PR4; Table 5): > 1000 nM | IC50 (S1PR5; Table 5): > 1000 nM

COc1ccc(NC(=O)Cn2c(=O)c3ccccc3n(CC(=O)Nc3cc(Cl)c(OC)cc3OC)c2=O)cc1 [[^11C]2c]
uptake in brain, blood, heart, lung, and pancreas ([2]; EAE mice versus control): increased uptake | tissue uptake ([2]; EAE mice): 0.699 %ID/g | tissue uptake ([2]; control mice): 0.452 %ID/g

COc1ccc(NC(=O)Cn2c(=O)c3ccccc3n(CC(=O)Nc3cc([125I])c(OC)cc3OC)c2=O)cc1 [[^125I]34]
Kd [3]: 4.31 ± 0.39 nM | Uptake Blood ([4]; 5 min control): 0.19 % ID/g and 0.19 ± 0.05 % ID/g | Uptake Blood ([4]; 30 min acute diabetic): 0.08 ± 0.05 % ID/g | Uptake Blood ([4]; 30 min control): 0.08 ± 0.02 % ID/g | Uptake Brain ([4]; 5 min control): 0.01 % ID/g and 0.01 ± 0.00 % ID/g | Uptake Brain ([4]; 30 min acute diabetic): 0.01 ± 0.00 % ID/g | Uptake Brain ([4]; 30 min control): 0.01 ± 0.00 % ID/g | Uptake Fat ([4]; 5 min control): 0.07 ± 0.02 % ID/g | Uptake Fat ([4]; 30 min acute diabetic): 0.11 ± 0.04 % ID/g | Uptake Fat ([4]; 30 min control): 0.09 ± 0.01 % ID/g | Uptake Heart ([4]; 5 min control): 0.39 % ID/g and 0.39 ± .08 % ID/g | Uptake Heart ([4]; 30 min acute diabetic): 0.12 ± 0.06 % ID/g | Uptake Heart ([4]; 30 min control): 0.14 ± 0.02 % ID/g | Uptake Kidney ([4]; 5 min control): 0.58 % ID/g and 0.58 ± 0.02 % ID/g | Uptake Kidney ([4]; 30 min acute diabetic): 0.15 ± 0.06 % ID/g | Uptake Kidney ([4]; 30 min control): 0.15 ± 0.02 % ID/g | Uptake Liver ([4]; 5 min control): 2.20 % ID/g and 2.20 ± 0.32 % ID/g | Uptake Liver ([4]; 30 min acute diabetic): 0.36 ± 0.14 % ID/g | Uptake Liver ([4]; 30 min control): 0.36 ± 0.07 % ID/g | Uptake Lung ([4]; 5 min control): 0.64 % ID/g and 0.64 ± 0.01 % ID/g | Uptake Lung ([4]; 30 min acute diabetic): 0.20 ± 0.09 % ID/g | Uptake Lung ([4]; 30 min control): 0.22 ± 0.04 % ID/g | Uptake Muscle ([4]; 5 min control): 0.12 ± 0.01 % ID/g | Uptake Muscle ([4]; 30 min acute diabetic): 0.06 ± 0.02 % ID/g | Uptake Muscle ([4]; 30 min control): 0.08 ± 0.01 % ID/g | Uptake Pancreas ([4]; 5 min control): 0.40 ± 0.04 % ID/g | Uptake Pancreas ([4]; 30 min acute diabetic): 0.12 ± 0.04 % ID/g | Uptake Pancreas ([4]; 30 min control): 0.14 ± 0.01 % ID/g | Uptake Small intestines ([4]; 5 min control): 1.09 ± 0.23 % ID/g | Uptake Small intestines ([4]; 30 min acute diabetic): 2.59 ± 0.58 % ID/g | Uptake Small intestines ([4]; 30 min control): 5.32 ± 0.27 % ID/g | Uptake Spleen ([4]; 5 min control): 0.29 ± 0.06 % ID/g | Uptake Spleen ([4]; 30 min acute diabetic): 0.05 ± 0.02 % ID/g | Uptake Spleen ([4]; 30 min control): 0.06 ± 0.01 % ID/g | Uptake Thymus ([4]; 5 min control): 0.10 ± 0.01 % ID/g | Uptake Thymus ([4]; 30 min acute diabetic): 0.08 ± 0.03 % ID/g | Uptake Thymus ([4]; 30 min control): 0.10 ± 0.02 % ID/g | Uptake Thyroid ([4]; 5 min control): 0.32 ± 0.11 % ID/g | Uptake Thyroid ([4]; 30 min acute diabetic): 0.25 ± 0.06 % ID/g | Uptake Thyroid ([4]; 30 min control): 0.53 ± 0.09 % ID/g | in vivo metabolic stability ([4]; inferred from low activity in the thyroid): metabolically stable | crossing of the blood brain barrier ([4]; inferred from very low brain uptake in rats): does not cross the blood brain barrier | blocking of binding to kidney tissue ([5]; 10 μM of JTE-013, both groups): could be blocked | kidney radioactivity (autoradiography signal) ([5]; chronic diabetic (STZ) rats, n=5): 103.5 PSL/mm^2 | increase of binding to kidney of diabetic rats compared to control rats ([5]; chronic diabetic vs control): 44% | kidney radioactivity (autoradiography signal) ([5]; control rats, n=4): 72.0 PSL/mm^2
